This note sets out measurements from ChEMBL document CHEMBL3758109, “A novel triazole derivative of betulinic acid induces extrinsic and intrinsic apoptosis in human leukemia HL-60 cells” (Eur J Med Chem, 2016).

Structures are written as SMILES.

A short description of experiment [1]: Cytotoxicity against human PC3 cells assessed as cell growth inhibition at 10 uM after 48 hrs by MTT assay. The format is functional. The note with it: PC-3, 48 h, read-out: GI.
The nature of experiment [2]: Cytotoxicity against human MIAPaCa2 cells assessed as cell growth inhibition at 10 uM after 48 hrs by MTT assay. The note with it: MIA PaCa-2, 48 h, read-out: GI. The format is functional.
Experiment [3] in a line: Cytotoxicity against human HL60 cells assessed as cell growth inhibition at 10 uM after 48 hrs by MTT assay. The format is functional. The note with it: HL-60, 48 h, read-out: GI.
Experiment [4] deals with A549. Nature of the experiment: Cytotoxicity against human A549 cells assessed as cell growth inhibition at 10 uM after 48 hrs by MTT assay. The note with it: A549, 48 h, read-out: GI. The class given is functional.
Experiment [5] can be described thus: Cytotoxicity against human PC3 cells assessed as cell growth inhibition after 48 hrs by MTT assay. The class given is functional, cell-based. The following applies: PC-3, 48 h.
Experiment [6] can be described thus: Cytotoxicity against human MIAPaCa2 cells assessed as cell growth inhibition after 48 hrs by MTT assay. The class given is functional, cell-based. The note with it: MIA PaCa-2, 48 h.
The subject of experiment [7] is A549. Nature of the experiment: Cytotoxicity against human A549 cells assessed as cell growth inhibition after 48 hrs by MTT assay. The format is functional, cell-based. The note with it: A549, 48 h.
A short description of experiment [8]: Cytotoxicity against human HL60 cells assessed as cell growth inhibition after 48 hrs by MTT assay. The format is functional, cell-based. The note with it: HL-60, 48 h.

With `C=C(C)[C@@H]1CC[C@]2(C(=O)OCc3cn(-c4cccc(OC)c4OC)nn3)CC[C@]3(C)[C@H](CC[C@@H]4[C@@]5(C)CC[C@H](O)C(C)(C)[C@@H]5CC[C@]43C)[C@@H]12`, the inhibition of growth at 10 µM came out at 49% in experiment [1], 30% in experiment [2], 58% in experiment [3] and 48% in experiment [4].
`C=C(C)[C@@H]1CC[C@]2(C(=O)OCc3cn(-c4ccccc4C#N)nn3)CC[C@]3(C)[C@H](CC[C@@H]4[C@@]5(C)CC[C@H](OCc6cn(-c7ccccc7C#N)nn6)C(C)(C)[C@@H]5CC[C@]43C)[C@@H]12`: the inhibition of growth at 10 µM in experiment [1] turned out to be 15%; in experiment [2] it was 23%; in experiment [3], 12%; in experiment [4] it was 0%.
For `C=C(C)[C@@H]1CC[C@]2(C(=O)OCc3cn(-c4cccc(OCc5ccc(F)cc5)c4)nn3)CC[C@]3(C)[C@H](CC[C@@H]4[C@@]5(C)CC[C@H](O)C(C)(C)[C@@H]5CC[C@]43C)[C@@H]12`, the inhibition of growth at 10 µM in experiment [1] came out at 4%; in experiment [2], 9%; in experiment [3] it was 32%; in experiment [4], 6%.
For `C=C(C)[C@@H]1CC[C@]2(C(=O)OCc3cn(-c4ccc(-c5ccccc5)cc4)nn3)CC[C@]3(C)[C@H](CC[C@@H]4[C@@]5(C)CC[C@H](O)C(C)(C)[C@@H]5CC[C@]43C)[C@@H]12`, in that order: 10%, 10%, 13% and 5%.
As for `C=C(C)[C@@H]1CC[C@]2(C(=O)OCc3cn(-c4ccc(C(C)(C)C)cc4)nn3)CC[C@]3(C)[C@H](CC[C@@H]4[C@@]5(C)CC[C@H](O)C(C)(C)[C@@H]5CC[C@]43C)[C@@H]12`, the inhibition of growth at 10 µM in experiment [1] was 9%; in experiment [2] it was 9%; in experiment [3] it was 11%; in experiment [4] it was 9%.
On to `C=C(C)[C@@H]1CC[C@]2(C(=O)OCc3cn(-c4ccc(F)cc4)nn3)CC[C@]3(C)[C@H](CC[C@@H]4[C@@]5(C)CC[C@H](OCc6cn(-c7ccc(F)cc7)nn6)C(C)(C)[C@@H]5CC[C@]43C)[C@@H]12`, for which the inhibition of growth at 10 µM in experiment [1] was 8%; in experiment [2], 7%; in experiment [3], 13%; in experiment [4], 11%.
With `C=C(C)[C@@H]1CC[C@]2(C(=O)OCc3cn(-c4cccnc4Cl)nn3)CC[C@]3(C)[C@H](CC[C@@H]4[C@@]5(C)CC[C@H](O)C(C)(C)[C@@H]5CC[C@]43C)[C@@H]12`, the IC50 in experiment [5] came to 69 µM; in experiment [6] it was 8 µM; in experiment [7], 50 µM; in experiment [8], 18 µM. Further, the inhibition of growth at 10 µM in experiment [1] was determined as 30%; in experiment [2] it was 55%; in experiment [3], 46%; in experiment [4], 40%.
In the case of `C=C(C)[C@@H]1CC[C@]2(C(=O)OCc3cn(-c4cc(C)ccc4C)nn3)CC[C@]3(C)[C@H](CC[C@@H]4[C@@]5(C)CC[C@H](O)C(C)(C)[C@@H]5CC[C@]43C)[C@@H]12`, the inhibition of growth at 10 µM came out at 44% in experiment [1], 38% in experiment [2], 51% in experiment [3] and 41% in experiment [4].
On to `C=C(C)[C@@H]1CC[C@]2(C(=O)OCc3cn(-c4ccc(C=O)cc4)nn3)CC[C@]3(C)[C@H](CC[C@@H]4[C@@]5(C)CC[C@H](O)C(C)(C)[C@@H]5CC[C@]43C)[C@@H]12`, for which the inhibition of growth at 10 µM in experiment [1] was 9%; in experiment [2], 7%; in experiment [3], 21%; in experiment [4] it was 4%.
Regarding `C=C(C)[C@@H]1CC[C@]2(C(=O)OCc3cn(-c4ccccc4)nn3)CC[C@]3(C)[C@H](CC[C@@H]4[C@@]5(C)CC[C@H](O)C(C)(C)[C@@H]5CC[C@]43C)[C@@H]12`, the IC50 in experiment [5] came to 18 µM; in experiment [6] it was 18 µM; in experiment [7], 18 µM; in experiment [8], 27 µM. Further, the inhibition of growth at 10 µM in experiment [1] amounted to 25%; in experiment [2] it was 39%; in experiment [3], 11%; in experiment [4], 27%.
Consider `C=C(C)[C@@H]1CC[C@]2(C(=O)OCc3cn(-c4c(F)ccc(OC)c4Br)nn3)CC[C@]3(C)[C@H](CC[C@@H]4[C@@]5(C)CC[C@H](O)C(C)(C)[C@@H]5CC[C@]43C)[C@@H]12`, for which the inhibition of growth at 10 µM was 5% in experiment [1], 7% in experiment [2], 12% in experiment [3] and 7% in experiment [4].
Consider `C#CCOC(=O)[C@]12CC[C@@H](C(=C)C)[C@@H]1[C@H]1CC[C@@H]3[C@@]4(C)CC[C@H](O)C(C)(C)[C@@H]4CC[C@@]3(C)[C@]1(C)CC2`, for which the inhibition of growth at 10 µM in experiment [1] was determined as 46%; in experiment [2], 20%; in experiment [3], 50%; in experiment [4], 41%.
Take `C=C(C)[C@@H]1CC[C@]2(C(=O)OCc3cn(-c4ccc5ccccc5c4)nn3)CC[C@]3(C)[C@H](CC[C@@H]4[C@@]5(C)CC[C@H](O)C(C)(C)[C@@H]5CC[C@]43C)[C@@H]12`: the inhibition of growth at 10 µM came out at 7% in experiment [1], 6% in experiment [2], 18% in experiment [3] and 1% in experiment [4].
As to `C=C(C)[C@@H]1CC[C@]2(C(=O)OCc3cn(-c4ccc(NC(=O)c5ccccc5)cc4)nn3)CC[C@]3(C)[C@H](CC[C@@H]4[C@@]5(C)CC[C@H](O)C(C)(C)[C@@H]5CC[C@]43C)[C@@H]12`, the inhibition of growth at 10 µM in experiment [1] turned out to be 21%; in experiment [2], 0%; in experiment [3], 0%; in experiment [4], 2%.
`C=C(C)[C@@H]1CC[C@]2(C(=O)OCc3cn(-c4ccc(C)cc4)nn3)CC[C@]3(C)[C@H](CC[C@@H]4[C@@]5(C)CC[C@H](O)C(C)(C)[C@@H]5CC[C@]43C)[C@@H]12`: the inhibition of growth at 10 µM is 67% in experiment [1], 34% in experiment [2], 56% in experiment [3] and 52% in experiment [4].
In the case of `C=C(C)[C@@H]1CC[C@]2(C(=O)OCc3cn(-c4ccc(OCCC)c(Cl)c4)nn3)CC[C@]3(C)[C@H](CC[C@@H]4[C@@]5(C)CC[C@H](O)C(C)(C)[C@@H]5CC[C@]43C)[C@@H]12`, the inhibition of growth at 10 µM was 7% in experiment [1], 3% in experiment [2], 23% in experiment [3] and 1% in experiment [4].
Consider `C=C(C)[C@@H]1CC[C@]2(C(=O)OCc3cn(-c4cccc5c(O)cccc45)nn3)CC[C@]3(C)[C@H](CC[C@@H]4[C@@]5(C)CC[C@H](OCc6cn(-c7cccc8c(O)cccc78)nn6)C(C)(C)[C@@H]5CC[C@]43C)[C@@H]12`, for which the inhibition of growth at 10 µM came out at 18% in experiment [1], 19% in experiment [2], 23% in experiment [3] and 18% in experiment [4].
With `C=C(C)[C@@H]1CC[C@]2(C(=O)OCc3cn(-c4cccc5c(O)cccc45)nn3)CC[C@]3(C)[C@H](CC[C@@H]4[C@@]5(C)CC[C@H](O)C(C)(C)[C@@H]5CC[C@]43C)[C@@H]12`, the inhibition of growth at 10 µM in experiment [1] stood at 5%; in experiment [2], 3%; in experiment [3], 26%; in experiment [4], 7%.
Regarding `C=C(C)[C@@H]1CC[C@]2(C(=O)OCc3cn(-c4cccc([N+](=O)[O-])c4)nn3)CC[C@]3(C)[C@H](CC[C@@H]4[C@@]5(C)CC[C@H](O)C(C)(C)[C@@H]5CC[C@]43C)[C@@H]12`, the inhibition of growth at 10 µM in experiment [1] came to 10%; in experiment [2], 9%; in experiment [3] it was 21%; in experiment [4], 8%.
The matching figures for `C=C(C)[C@@H]1CC[C@]2(C(=O)OCc3cn(/C=C/c4ccccc4)nn3)CC[C@]3(C)[C@H](CC[C@@H]4[C@@]5(C)CC[C@H](O)C(C)(C)[C@@H]5CC[C@]43C)[C@@H]12`: 8%, 35%, 20% and 47%.
Consider `C=C(C)[C@@H]1CC[C@]2(C(=O)OCc3cn(-c4ccc5oc6ccccc6c5c4)nn3)CC[C@]3(C)[C@H](CC[C@@H]4[C@@]5(C)CC[C@H](O)C(C)(C)[C@@H]5CC[C@]43C)[C@@H]12`, for which the inhibition of growth at 10 µM is 4% in experiment [1], 7% in experiment [2], 14% in experiment [3] and 5% in experiment [4].
Regarding `C=C(C)[C@@H]1CC[C@]2(C(=O)OCc3cn(-c4ccccc4C#N)nn3)CC[C@]3(C)[C@H](CC[C@@H]4[C@@]5(C)CC[C@H](O)C(C)(C)[C@@H]5CC[C@]43C)[C@@H]12`, the inhibition of growth at 10 µM in experiment [1] is 6%; in experiment [2] it was 4%; in experiment [3] it was 22%; in experiment [4] it was 9%.
